Data on one molecule can be found in patent US20050256179A1, “Selective pharmacologic inhibition of protein trafficking and related methods of treating human diseases” (priority 2003, published 2005).

Common to all, as to format: cell-based
Test [1] deals with viruses from families likely to utilize the golgi. Briefly: In vitro testing of other viral families. Conditions: Table 4. Here is the method:
(§1) The effect of AVP 893 on the spread of viral infection was further investigated. AVP 893 (at 300 ng/ml) was applied 16 hr prior to virus inoculation. Time points shown in FIG. 45 represent the hours after virus inoculation. […] In addition to the immunocytochemistry work shown in FIG. 45, extensive in vitro plaque assays were performed on HSV-1 and -2, as well as other families of virus that use the golgi in their life cycle (see Table 2).
Representative viruses from families likely to utilize the golgi were tested. […] (data not shown).

The subject of another test is OVCAR3. Briefly: Inhibition of tumor cell proliferation in vitro (SRB total protein). Conditions: Homo sapiens. Here is the method: (§2) For a typical screening experiment, cells are inoculated into 96 well microtiter plates in 100 μl at plating densities ranging from 5,000 to 40,000 cells/well depending on the doubling time of individual cell lines. After cell inoculation, the microtiter plates are incubated at 37° C., 5% or 10% CO2—depending on the cell line and media—95% air and 100% relative humidity for 24 h prior to addition of experimental drugs. After 24 h, two plates of each cell line are fixed in situ with TCA, to represent a measurement of the cell population for each cell line at the time of drug addition. Following drug addition, the plates are incubated for an additional 48 h at 37° C., 5%/10% CO2, 95% air, and 100% relative humidity. For adherent cells, the assay is terminated by the addition of cold TCA. Cells are fixed in situ by the gentle addition of 50 μl of cold 50% (w/v) TCA (final concentration, 10% TCA) and incubated for 60 minutes at 4° C. The supernatant is discarded, and the plates are washed five times with tap water and air-dried. Sulforhodamine B (SRB) solution (10011) at 0.4% (w/v) in 1% acetic acid is added to each well, and plates are incubated for 10 minutes at room temperature. After staining, unbound dye is removed by washing five times with 1% acetic acid and the plates are air-dried. Bound stain is subsequently solubilized with 10 mM trizma base, and the absorbance is read on an automated plate reader at a wavelength of 515 nm. For suspension cells, the methodology is the same except that the assay is terminated by fixing settled cells at the bottom of the wells by gently adding 50 μl of 80% TCA (final concentration, 16% TCA). Using the seven absorbance measurements [time zero, control growth, and test growth in the presence of drug at the five concentration levels], the percentage growth is calculated at each of the drug concentrations levels.
(§3) Brefeldin A was tested by the NCI for inhibition of tumor cell proliferation in the 60-cell screen. The NCI 60-cell screen was performed essentially as described for FIG. 9. Data available from the NCI database for Brefeldin A was compared with more recent AVP 893 data. […] Several tumor cell lines were cultured in the presence of either AVP 893 or Brefeldin A for about 72 hours before assessing proliferation response by measuring total protein (SRB), as described for FIG. 9. The results of the head-to-head comparisons performed in-house also show substantial variation in the relative proliferative responses of cells to Brefeldin A and AVP 893 in vitro (TABLE 3).

Another test relates to SW480. The test is described as above. Conditions: Homo sapiens, column Avanir, read-out: IC50 (ng/ml), Avanir. The procedure:
as §2, §3

Another test concerns HCC 1806. Described as above. Conditions: Homo sapiens, HCC1806, 72 h, in-house head-to-head, about 72 hours, read-out: IC50. The procedure: as §2, §3
The next test has as its system MOLT-4. The description is as above. Conditions: Homo sapiens. The procedure:
as §2, §3

Another test deals with Hs578T. The description is as above. Conditions: Homo sapiens, Hs-578T. Here is the method:
as §2, §3

In another test the test system is NCI H-460. The description is as above. Conditions: Homo sapiens. The procedure: as §2, §3
The test system of another test is HSV-2. Briefly: Spread of HSV-2 in infected cultures (glycoprotein E labeling). Conditions: 300 ng/ml applied 16 hr prior to virus inoculation. The procedure: as §1
We determined whether viral particles (as visualized in FIG. 45 by labeling HSV-2 glycoprotein E) spread beyond the initial site of infection in the presence of AVP 893. HSV-2-infected cultures were treated with AVP 893. […] Other HSV proteins including gB, gD, and the capsid protein ICP5 were also examined with similar results (data not shown). […] Furthermore, AVP 893 didn't appear to stop the initial infection of the culture, only the subsequent spread of the virus.

[2] abbreviates: column Avanir, read-out: IC50 (ng/ml), Avanir.
Setting [3] is: column NCI, read-out: IC50 (ng/ml), NCI.
The mark [4] stands for this setting: in-house head-to-head, about 72 hours, SRB, read-out: IC50.

Converted amounts (≈) assume the structure as drawn. Read-outs that look alike come from different tables or passages of the source.

Regarding `O=C(Nc1ccc(-c2nc3cc(NC(=O)C4CCCCC4)ccc3[nH]2)cc1)C1CCCCC1` [AVP 893], in test [1], the “spread of other viral families” value is reported as “inhibited”. Moreover, the IC50 in the test with OVCAR3 (OVCAR-3, column Avanir, read-out: IC50 (ng/ml), Avanir) is 200 ng/mL (≈ 450 nM); in the test with OVCAR3 (OVCAR-3, column NCI, read-out: IC50 (ng/ml), NCI), 1000 ng/mL (≈ 2250 nM); in the test with SW480, 1500 ng/mL (≈ 3370 nM); in the test with HCC 1806 it was 4 ng/mL (≈ 9 nM); in the test with MOLT-4 (setting [2]), 0.001 ng/mL (≈ 0.00225 nM); in the test with MOLT-4 (setting [3]) it was under 10 ng/mL. In addition, the IC50 in the test on MOLT-4 (setting [4]) was 30 ng/mL (≈ 67.5 nM); in the test on Hs578T (setting [2]), 2 ng/mL (≈ 4.5 nM); with Hs578T (setting [3]) it was under 10 ng/mL; in the test on Hs578T (setting [4]), under 1 ng/mL; in the test with NCI H-460 (NCI-H460, column Avanir, read-out: IC50 (ng/ml), Avanir), over 2000 ng/mL; with NCI H-460 (NCI-H460, column NCI, read-out: IC50 (ng/ml), NCI) it was 400 ng/mL (≈ 900 nM). Besides, in the test on NCI H-460 (NCI-H460, in-house head-to-head, about 72 hours, SRB, read-out: IC50), the IC50 was over 3000 ng/mL. For the same molecule, the “spread of HSV-2 beyond the initial site of infection” value with HSV-2 is listed as “blocked the spread of HSV-2 virus particles”.
